From US20220117972A1, “USE OF PPAR-DELTA AGONISTS IN THE TREATMENT OF MITOCHONDRIAL MYOPATHY” (Reneo Pharmaceuticals, Inc., priority 2019, published 2022)
pEC50: −log10 of the molar value. Like-named read-outs stand apart in the source and are kept apart here.

Key:
Assay type in all cases: cell-based
human muscle cell lines = assay: fatty acid oxidation in human muscle cell line; conditions: in vitro
LXRα = biological target: T1, LXRα (Homo sapiens, UniProt Q13133); assay: nuclear receptor LXRα activity
T1 sequence (Q13133 1-447): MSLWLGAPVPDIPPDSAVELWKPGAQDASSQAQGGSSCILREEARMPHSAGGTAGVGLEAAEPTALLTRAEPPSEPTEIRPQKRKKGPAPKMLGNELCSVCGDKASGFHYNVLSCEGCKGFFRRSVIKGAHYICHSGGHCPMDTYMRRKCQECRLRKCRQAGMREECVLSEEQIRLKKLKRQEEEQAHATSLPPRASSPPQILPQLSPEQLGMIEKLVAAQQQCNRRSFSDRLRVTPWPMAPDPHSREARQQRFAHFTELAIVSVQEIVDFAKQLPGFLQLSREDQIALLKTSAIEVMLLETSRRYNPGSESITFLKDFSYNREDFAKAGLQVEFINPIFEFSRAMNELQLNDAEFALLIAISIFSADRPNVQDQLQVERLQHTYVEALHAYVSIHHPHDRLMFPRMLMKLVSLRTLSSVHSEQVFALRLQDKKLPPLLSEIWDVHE

hPPARα = biological target: T2, hPPARα (Homo sapiens, UniProt Q07869); assay: PPAR receptor transactivation assay, human PPARα
T2 construct: expressed in transfected cells; host or cells: Jump-In GripTite HEK293
T2 sequence (Q07869 239-466 limits assumed): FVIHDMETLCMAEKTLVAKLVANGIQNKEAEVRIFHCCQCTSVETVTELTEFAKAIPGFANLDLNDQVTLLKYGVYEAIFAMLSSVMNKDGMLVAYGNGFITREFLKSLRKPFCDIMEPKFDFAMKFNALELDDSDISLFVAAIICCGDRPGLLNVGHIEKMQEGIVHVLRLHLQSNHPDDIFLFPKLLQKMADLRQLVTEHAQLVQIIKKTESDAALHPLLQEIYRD
Protocol: Compound 1 was tested on all three human PPAR subtypes (hPPAR): hPPARα, hPPARγ, and hPPARδ. All assays were repeated at least three times for each subtype.
The genes of interest were synthesized and cloned into an appropriate Jump-In™ retargeting vector following the User Guide of the Jump-In™ T-REx™ HEK293 Retargeting Kit (ThermoFisher Catalog No A15008). For example, the vector will be used to transfect and retarget the Jump-In™ HEK293 GripTite™ parental cell line. Stable pools will be antibiotic-selected for about 21 days and tested for target gene expression by functional assay.
Jump-In™ GripTite™ HEK293 parental cells were plated at 60-80% confluency in a T-75 flask in growth medium without antibiotics and transfected with a 1:1 ratio of expression construct and R4 integrase expression construct (20 μg DNA total) using Lipofectamine® LTX (50 μL) and PLUS™ Reagent (20 μL). Following a 48 hours incubation, cells were selected with 600 μg/mL Geneticin® and 10 μg/mL Blasticidin for ˜21 days in growth medium.
Jump-In™ GripTite™ HEK293 rPPAR Alpha, Delta or Gamma UAS-bla-Gal4 cell pools were plated in a 384-well plate format (20,000 cells per well) in OptiMeM without FBS in replicates (n=4). Cells were allowed to adhere for 8 hours before addition of Compound 1 (1 mM top concentration, 3-fold dilutions, 10-point titration). After 16 hours, the cells were loaded with LiveBLAzer®, a fluorescent BLA substrate that gives a blue/green readout of expressing/non-expressing cells, respectively. The blue/green readout was measured on a fluorescent plate reader (Tecan Safire II).

PPARδ = biological target: T3, PPARδ (UniProt I0FFS1); assay: PPAR receptor transactivation assay, monkey PPARδ
T3 construct: This is inferred from the cell pool name 'UAS-bla-Gal4' and from the general description in b82 and b85
T3 sequence (I0FFS1 1-441): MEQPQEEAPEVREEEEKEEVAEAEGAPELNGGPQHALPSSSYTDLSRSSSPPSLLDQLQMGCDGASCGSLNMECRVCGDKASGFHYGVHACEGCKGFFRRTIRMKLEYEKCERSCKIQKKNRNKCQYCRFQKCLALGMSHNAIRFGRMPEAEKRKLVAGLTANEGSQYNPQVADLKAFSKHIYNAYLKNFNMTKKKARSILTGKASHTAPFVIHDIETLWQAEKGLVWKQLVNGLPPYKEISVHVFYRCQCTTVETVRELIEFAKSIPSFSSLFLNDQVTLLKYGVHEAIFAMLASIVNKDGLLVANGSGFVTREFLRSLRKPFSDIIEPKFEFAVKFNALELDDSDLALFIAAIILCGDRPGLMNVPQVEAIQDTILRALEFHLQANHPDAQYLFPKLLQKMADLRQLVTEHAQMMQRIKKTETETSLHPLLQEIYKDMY

## Cc1cc(OC/C=C(/c2ccc(F)cc2)c2ccc(C#CCN3CCOCC3)cc2)ccc1OCC(=O)O [Compound 1, (E)-[4-[3-(4-Fluorophenyl)-3-[4-[3-(morpholin-4-yl)propynyl]phenyl]allyloxy]-2-methyl-phenoxy]acetic acid]
Human muscle cell lines
  fatty acid oxidation: dose-dependent increase
LXRα
  activity on the nuclear receptor LXRα: did not show any
hPPARα; Human PPARα, read-out: EC50 (nM) Mean
  EC50: > 10000 nM
hPPARα; human PPARα, Example 12, read-out: EC50
  pEC50: < 5.00
hPPARα; in some cases
  activity on PPARα in transactivation assays: negligible activity
  agonist type at PPARα: partial agonist
PPARδ
  EC50: 6.6 nM
